Assay results as given in patent US20230103704A1, “HUMAN ANTI-IN[…] FOR THE […] OF IN[…] ISSUES” (priority 2020, published 2023).
Several values for one entry are separate records, joined by “and”; a condition that tells them apart may be missing. Equal values may be shown once. Entries after “also recorded” stand apart in the source; their conditions may differ. Marks after values point to notes of the source that are not given here.

Tests used:
[1] = type: physicochemical
Description: Aviptadil can be obtained, e.g., from Bachem AG, Bubendorf, Switzerland, in GMP quality.
The experimental procedure was carried out pursuant to Ph. Eur. 2.9.44 (Preparations for Nebulisation: Characterisation). A cascade impactor (Next Generation Impactor (NGI), Copley Scientific Ltd., Nottingham, UK) was used to determine the respective percentage for each fraction of the nebulized particles.
The thus generated aerosol was delivered to the cascade impactor by means of a mouthpiece (SK-211, NEBU-TEC, Eisenfeld, Germany).
The nebulization chamber (yellow stamp, 250 μl liquid discharge) was filled. The puff profile configured at the breath simulator was chosen in such a way that a correct simulation of inhalation by means of the nebulizer was ensured. The corresponding time was recorded.
Single values obtained for each cascade were added. […] MMAD, FPF and FPM were calculated from the obtained values: […]

[2] = Aviptadil aerosol from M-neb dose+ MN-300/8 tested with COPLEY next generation impactor; type: physicochemical
Description: Using the M-neb® dose^+ mesh nebulizer MN-300/8 and the respective mouthpiece, Aviptadil has been tested with the COPLEY next generation impactor (NGI). The mass median aerodynamic diameter (MMD) of Aviptadil dissolved in 0.9% NaCl was 3.3-3.5 μm per emitted particle. The number of those particles <5 μm=85.70%, and the dose delivered at the mouthpiece was 90.2% of the tested dosages.
Aviptadil has been tested in 0.9% NaCl solution at different drug concentrations (35 μg/ml, 70 μg/ml, 140 μg/ml, 200 μg/ml, 250 μg/ml, 400 μg/ml).

[3] = test system: pulmonary arterial hypertension (PAH); test: Case: inhaled Aviptadil in a patient with severe pulmonary arterial hypertension; type: in vivo, human
Description: A patient with severe pulmonary arterial hypertension (PAH), associated with collagen vascular disease, presented with signs of right ventricular decompensation, with an initial pulmonary vascular resistance (PVR) of 1413 dyn s cm^−5. The patient was treated before with bosentan for 3 months. This therapy was discontinued due to increased liver enzymes. PAH-specific medication was changed to triple therapy comprising inhaled iloprost and systemic sildenafil and ambrisentan. The patient developed peripheral edema, right ventricular hypertrophy, right ventricular systolic pressure (RVSP) 97 mm Hg, TAPSE (tricuspid annular plane systolic excursion) 17 mm, 6 min walking test 290 m. A repeated prostanoid therapy was refused by the patient. Due to the lack of other treatment options, treatment with inhaled Aviptadil was initiated at a dose of 4×140 μg/ml per day (560 μg/day) with overnight break, droplet characteristics of a MMAD of 3.4 μm per emitted particle (nebulizer: M-neb-dose+, NEBU-TEC, Eisenfeld, Germany). 90% of the dose were delivered at the mouthpiece (SK-211, NEBU-TEC, Eisenfeld, Germany). Inhalation time per treatment was 12 minutes. […] 6 months later the 6 min walking test was increased to 340 m, 12 months later to 410 m. 3 years later an ongoing improvement was noted, with 6 min walking distances between 430-475 m and still persistent PAH, but good right ventricular function of TAPSE 22 mm. This dramatic improvement of the patient over time is attributed to the effect of inhaled Aviptadil.

sarcoidosis of the lung = test: Case: inhaled Aviptadil in a patient with severe sarcoidosis of the lung (KSQ); type: in vivo, human; conditions: for King's College Sarcoidosis Questionnaire (KSQ) score: 280 μg per day inhaled
Description: A patient with severe sarcoidosis of the lung indicated for therapeutic treatment suffered from unproductive chronic cough, dyspnea on exertion and chronic fatigue. […] Therapy was initiated at a dose of 4×70 μg/ml per day dosage (280 μg per day with overnight break; nebulizer: M-neb-dose+, NEBU-TEC, Eisenfeld, Germany; mouthpiece; SK-211, NEBU-TEC, Eisenfeld, Germany). Therapeutic benefit was measured by the newly established and well validated quality of life questionnaire for sarcoidosis, the King's College Sarcoidosis Questionnaire (KSQ; Patel et al. (2013) Thorax 68: 57-65). Therein an increase in score by 5 over time indicates significant clinical improvement. The patient started treatment at a score of 66, improved after 3 months of treatment to score 71, and after 6 months of treatment to score 77, which is 11 points higher than at beginning of treatment with Aviptadil.

[4] = test system: PBMCs stimulated with beryllium; test: Case: inhaled Aviptadil in a patient with Chronic Beryllium Disease, PBMC proliferation and cytokines; type: in vivo, human; conditions: after 6 months of treatment
Excerpt: A patient who was continuously exposed to beryllium at their workplace developed Chronic Beryllium Disease (CBD). This was diagnosed by tests performed on peripheral blood and bronchoalveolar lavage (BAL) mononuclear cells. […] A test called beryllium lymphocyte proliferation test (BeLPT) confirmed the CBD diagnosis. Due to the lack of available treatment options for CBD, the patient qualified for the Early Access Program treatment with inhaled Aviptadil. Therapy was initiated at a dose of 4×70 μg/ml per day dosage (280 μg per day with overnight break; nebulizer: M-neb-dose+, NEBU-TEC, Eisenfeld, Germany; mouthpiece; SK-211, NEBU-TEC, Eisenfeld, Germany). After 6 months of treatment, the proliferation rate of PBMCs stimulated with beryllium (0.1 mM) from the patient was inhibited by 100% by Aviptadil.

[5] = test system: CoViD-19 infected patients at risk for ARDS; conditions: human, in vivo
CoViD-19 = test: Individual curing attempts for CoViD-19 with Aviptadil, oxygen demand; type: in vivo, human
Description: Example 18: Individual Curing Attempts for the Therapy of CoViD-19 with Aviptadil 3×66 μg Daily Per Inhalationem (Oxygen Demand Via Oxygen Nasal Cannula in L Per Minute (l/min))

Patients with SARS-CoV-2 = test: Study of aviptadil inhalation versus placebo in CoViD-19 patients; type: in vivo, human; conditions: during treatment, 28 days inhalative
Excerpt: A study examines the positive effect of aviptadil inhalation (dosage example 17) in CoViD-19 patients.
Patients with SARS-CoV-2 are randomized into two groups, one with 28 days aviptadil inhalative, one with 28 days placebo inhalative.

[6] = Side effects of inhaled vasoactive intestinal peptide in previous trials; type: in vivo, human
ARDS = conditions: systemic administration, cited from earlier work
[7] = may be as low as; cited from earlier work
[8] = 0.1 mg/ml in physiological saline
[9] = estimated values with 25 l/min Highflow with oxygen from 72 to 44%
[10] = oxygen nasal cannula, 3×66 μg daily, one table line per patient
[11] = oxygen nasal cannula, 3×66 μg daily, one table line per patient, listed as Aviptadil

CC[C@H](C)[C@H](NC(=O)[C@H](CO)NC(=O)[C@H](CC(N)=O)NC(=O)[C@H](CC(C)C)NC(=O)[C@H](Cc1ccc(O)cc1)NC(=O)[C@H](CCCCN)NC(=O)[C@H](CCCCN)NC(=O)[C@@H](NC(=O)[C@H](C)NC(=O)[C@H](CCSC)NC(=O)[C@H](CCC(N)=O)NC(=O)[C@H](CCCCN)NC(=O)[C@H](CCCNC(=N)N)NC(=O)[C@H](CC(C)C)NC(=O)[C@H](CCCNC(=N)N)NC(=O)[C@@H](NC(=O)[C@H](Cc1ccc(O)cc1)NC(=O)[C@H](CC(N)=O)NC(=O)[C@H](CC(=O)O)NC(=O)[C@@H](NC(=O)[C@H](Cc1ccccc1)NC(=O)[C@@H](NC(=O)[C@H](C)NC(=O)[C@H](CC(=O)O)NC(=O)[C@H](CO)NC(=O)[C@@H](N)Cc1c[nH]cn1)C(C)C)[C@@H](C)O)[C@@H](C)O)C(C)C)C(=O)N[C@@H](CC(C)C)C(=O)N[C@@H](CC(N)=O)C(N)=O [vasoactive intestinal peptide]
MMAD [1, 8]: 3.40 μm
released dosage at the mouthpiece as share of the nominal value [1, 8]: 80%
released dosage ([1]; 0.1 mg/ml in physiological saline, at the mouthpiece): 0.08 mg
MMAD per emitted particle ([1]; Example 11, 140 μg/ml, M-neb-dose+): 3.4 μm
dose delivered at the mouthpiece ([1]; Example 11, mouthpiece SK-211): 90%
time of aerosol release ([1]; corresponds to 30 strokes/breaths): 3 min
dose delivered at the mouthpiece, of the tested dosages [2]: 90.2%
linearity of aerosol output rates at the mouthpiece over increasing numbers of breathing cycles ([2]; 35 to 400 μg/ml in 0.9% NaCl): excellent linearity
mass median aerodynamic diameter (MMD) per emitted particle ([2]; dissolved in 0.9% NaCl): 3.3-3.5 μm
number of particles <5 μm ([2]; dissolved in 0.9% NaCl): 85.70%
clinical course ([3]; 560 μg/day inhaled): gradual improvement
6 min walking distances ([3]; 3 years later): 430-475 m
TAPSE ([3]; 3 years later, 17 mm before): 22 mm
6 min walking test ([3]; 6 months later, 560 μg/day inhaled, 290 m before): 340 m
6 min walking test ([3]; 12 months later, 560 μg/day inhaled): 410 m
King's College Sarcoidosis Questionnaire (KSQ) score (sarcoidosis of the lung; after 3 months, score 66 at start): 71
KSQ score higher than at beginning of treatment (sarcoidosis of the lung; after 6 months): 11 points
King's College Sarcoidosis Questionnaire (KSQ) score (sarcoidosis of the lung; after 6 months): 77
production of cytokines TNF-alpha, IL-17 [4]: significantly diminished
Arterio-alveolar oxygen difference (AaDO2) [5]: lower
need of oxygen supplementation [5]: lower need of oxygen supplementation
oxygenation (SpO2/FiO2 quotient) [5]: better oxygenation
rate of progression to ARDS [5]: reduced rate of progression to ARDS
respiratory rate [5]: decrease of respiratory rate
O2 Day 1 (CoViD-19; [9]): 15* l/min
O2 Day 2 (CoViD-19; [9]): 15* l/min
O2 Day 3 (CoViD-19; [9]): 14* l/min
O2 Day 4 (CoViD-19; [9]): 11* l/min
O2 Day 5 (CoViD-19; [9]): 6* l/min
O2 Day 6 (CoViD-19; [9]): 6* l/min
O2 Day 11 (CoViD-19; [10]): 6 L/min
O2 Day 12 (CoViD-19; [10]): 3.3 L/min
O2 Day 13 (CoViD-19; [10]): 2 L/min
O2 Day 14 (CoViD-19; [10]): 1.5 L/min
O2 Day 15 (CoViD-19; [10]): 1 L/min
O2 Day 16 (CoViD-19; [10]): 0.5 L/min
O2 Day 17 (CoViD-19; [10]): 0 L/min
O2 Day 1 (CoViD-19; [11]): 5 L/min and 3 L/min and 2 L/min and 1.5 L/min
O2 Day 2 (CoViD-19; [11]): 4 l/min and 3 l/min (2×) and 2 l/min
O2 Day 3 (CoViD-19; [11]): 6 l/min and 4 l/min and 3 l/min (2×) and 2 l/min
O2 Day 4 (CoViD-19; [11]): 5 l/min and 4 l/min and 2 l/min (3×)
O2 Day 5 (CoViD-19; [11]): 4 l/min and 3 l/min and 1 l/min (2×) and 0 l/min
O2 Day 6 (CoViD-19; [11]): 3 l/min and 2 l/min (2×) and 0 l/min
O2 Day 7 (CoViD-19; [11]): 2 l/min (2×) and 1 l/min and 4 l/min
O2 Day 8 (CoViD-19; [11]): 0 l/min and 1 l/min (2×) and 5.5 l/min
O2 Day 9 (CoViD-19; [11]): 1 l/min (2×) and 4.7 l/min
O2 Day 10 (CoViD-19; [11]): 0 l/min (2×) and 5.5 l/min
T-cells expressing CD28 promoting inflammation (Patients with SARS-CoV-2): diminished
TNF release in the lung (Patients with SARS-CoV-2): diminished
regulatory T-cells dampening inflammation (Patients with SARS-CoV-2): increased
side effects found with systemic administration [6]: lacks the side effects; also recorded: lacks these side effects
systemic side effects (ARDS; some of the patients): hypotension
effect on ARDS (ARDS; trial discontinued): lack of positive effect
half-life in blood [7]: about 2 minutes
